Measurements: PMC11859264, “Discovery of a Novel Multitarget Analgesic Through an In Vivo-Guided Approach” (Pharmaceuticals, 2025)

System: formalin model
Assay: Formalin test in mice (primary in vivo screening and ED50)
Set-up: species or system ICR male mice
Settings: mice, second phase; for % Inhibition in the second phase of the formalin model relative to vehicle control: 5 mg/kg intraperitoneal; for ED50: Mus musculus, ip, intraperitoneal, doses 0.1, 1, 5 and 10 mg/kg, read-out: ED50 in the second phase of the formalin model
Protocol: For primary screening, the synthesized compounds were administered to mice via intraperitoneal injection at a dose of 5 mg/kg using the formalin model. The percentage inhibition in the second phase, relative to the vehicle control (DMSO/cremophor EL/distilled water = 10:10:80), was calculated.
Each compound was assessed using four doses (0.1, 1, 5, and 10 mg/kg) by intraperitoneal injection.
ICR male mice weighing 23–25 g was purchased from Samtako Korea (Osan, Republic of Korea). ICR mice were housed four per cage in a room with 12 h light–dark cycles. The temperature and relative humidity of the room were maintained at 22 ± 2 °C and 50 ± 5%, respectively. Food and water were available ad libitum. The procedures for animal testing were approved by Medifron Animal Care and Use Committees (Approval number; Medifron 2019-9). Efforts were made to minimize animal suffering and to reduce the number of animals used.
Mice were randomly assigned to five groups (four per group) and single-dose drugs were administered by intraperitoneal injection. The formalin-induced licking paw test was modified from the method described by Dubuisson and Dennis. Each mouse was acclimated to an acrylic observation chamber for at least 30 min before the injection of formalin. Twenty microliters of 2% formalin were injected subcutaneously into the right side of the hind paw. Each mouse was then placed in an individual clear plastic observational chamber (15 × 15 × 15 cm, volume = […] or 3.375 L), and the pain response was recorded for a period of 30 min. The summation of time (in seconds) spent in licking and biting responses of the injected paw during each 5 min block was measured as an indicator of the pain response. The first period (early phase) was recorded 0–5 min after the injection of formalin, and the second period (late phase) was recorded 20–30 min after the injection. The test compound was administered intraperitoneally 30 min before the formalin injection at […]: 0.1, 1, 5, and 10 mg/kg. The vehicle was DMSO/Cremophor EL/distilled water (10/10/80). The data were expressed as the mean ± standard error of the mean (SEM). Statistical analysis was assessed by one-way analysis of variance (ANOVA) with Bonferroni’s post hoc test. Statistical significance was set at p-value < 0.05, with values of p <0.001 considered highly significant.

Compound	% Inhibition in the second phase of the formalin model relative to vehicle control [%]	ED50 [mg/kg]
N#Cc1ccc2[nH]cc(C(=O)NCCN3CCN(c4ccc(C(F)(F)F)cc4)CC3)c2c1 [Compound 25, 5-Cyano-N-(2-(4-(4-(trifluoromethyl)phenyl)piperazin-1-yl)ethyl)-1H-indole-3-carboxamide]	19.8	
N#Cc1ccc2[nH]cc(C(=O)NCCCN3CCN(C(=O)c4ccc(F)cc4)CC3)c2c1 [Compound 49, 5-Cyano-N-(3-(4-(4-fluorobenzoyl)piperazin-1-yl)propyl)-1H-indole-3-carboxamide]	20.3	
N#Cc1ccc2[nH]cc(C(=O)NCCCN3CCN(c4ncccc4C(F)(F)F)CC3)c2c1 [Compound 44, 5-Cyano-N-(3-(4-(3-(trifluoromethyl)pyridin-2-yl)piperazin-1-yl)propyl)-1H-indole-3-carboxamide]	3.7	
N#Cc1ccc2[nH]cc(C(=O)NCCN3CCC(n4c(=O)[nH]c5cc(Cl)ccc54)CC3)c2c1 [Compound 53, N-(2-(4-(5-Chloro-2-oxo-2,3-dihydro-1H-benzo[d]imidazol-1-yl)piperidin-1-yl)ethyl)-5-cyano-1H-indole-3-carboxamide]	14.3	
N#Cc1ccc2[nH]cc(C(=O)NCCN3CCN(c4cccc(Cl)c4)CC3)c2c1 [Compound 21, N-(2-(4-(3-Chlorophenyl)piperazin-1-yl)ethyl)-5-cyano-1H-indole-3-carboxamide]		2.3
N#Cc1ccc2[nH]cc(C(=O)NCCCN3CCN(c4ncccc4Cl)CC3)c2c1 [Compound 43, N-(3-(4-(3-Chloropyridin-2-yl)piperazin-1-yl)propyl)-5-cyano-1H-indole-3-carboxamide]	45.3	
N#Cc1ccc2[nH]cc(C(=O)NCCCN3CCN(c4cccc(C(F)(F)F)c4)CC3)c2c1 [Compound 38, 5-Cyano-N-(3-(4-(3-(trifluoromethyl)phenyl)piperazin-1-yl)propyl)-1H-indole-3-carboxamide]	37.1	
N#Cc1ccc2[nH]cc(C(=O)NCCN3CCN(C(=O)C4COc5ccccc5O4)CC3)c2c1 (stereo not shown) [Compound 35, 5-Cyano-N-(2-(4-(2,3-dihydrobenzo[b][1,4]dioxine-2-carbonyl)piperazin-1-yl)ethyl)-1H-indole-3-carboxamide]	0.4	
N#Cc1ccc2[nH]cc(C(=O)NCCN3CCN(c4ccc(F)cc4)CC3)c2c1 [Compound 23, 5-Cyano-N-(2-(4-(4-fluorophenyl)piperazin-1-yl)ethyl)-1H-indole-3-carboxamide]	35.8	
N#Cc1ccc2[nH]cc(C(=O)NCCN3CCN(c4cccc(C(F)(F)F)c4)CC3)c2c1 [Compound 22, 5-Cyano-N-(2-(4-(3-(trifluoromethyl)phenyl)piperazin-1-yl)ethyl)-1H-indole-3-carboxamide]		1.3
N#Cc1ccc2[nH]cc(C(=O)NCCCN3CCN(C(=O)C4COc5ccccc5O4)CC3)c2c1 (stereo not shown) [Compound 51, 5-Cyano-N-(3-(4-(2,3-dihydrobenzo[b][1,4]dioxine-2-carbonyl)piperazin-1-yl)propyl)-1H-indole-3-carboxamide]	27.3	
N#Cc1ccc2[nH]cc(C(=O)NCCCN3CCN(c4ccc(C(F)(F)F)cc4)CC3)c2c1 [Compound 41, 5-Cyano-N-(3-(4-(4-(trifluoromethyl)phenyl)piperazin-1-yl)propyl)-1H-indole-3-carboxamide]	16.5	
N#Cc1ccc2[nH]cc(C(=O)NCCCN3CCN(c4ccc5oc(C(N)=O)cc5c4)CC3)c2c1 [Compound 46, N-(3-(4-(2-Carbamoylbenzofuran-5-yl)piperazin-1-yl)propyl)-5-cyano-1H-indole-3-carboxamide]	49.2	
N#Cc1ccc2[nH]cc(C(=O)NCCCN3CCN(C(=O)c4cccc(C(F)(F)F)c4)CC3)c2c1 [Compound 50, 5-Cyano-N-(3-(4-(3-(trifluoromethyl)benzoyl)piperazin-1-yl)propyl)-1H-indole-3-carboxamide]	2.9	
N#Cc1ccc2[nH]cc(C(=O)NCCN3CCN(c4ncccc4Cl)CC3)c2c1 [Compound 27, N-(2-(4-(3-Chloropyridin-2-yl)piperazin-1-yl)ethyl)-5-cyano-1H-indole-3-carboxamide]	48.0	
N#Cc1ccc2[nH]cc(C(=O)NCCCN3CCC(n4c(=O)[nH]c5cc(Cl)ccc54)CC3)c2c1 [Compound 55, N-(3-(4-(5-Chloro-2-oxo-2,3-dihydro-1H-benzo[d]imidazol-1-yl)piperidin-1-yl)propyl)-5-cyano-1H-indole-3-carboxamide]	24.0	
N#Cc1ccc2[nH]cc(C(=O)NCCCN3CCN(c4ccc(Cl)cc4)CC3)c2c1 [Compound 40, N-(3-(4-(4-Chlorophenyl)piperazin-1-yl)propyl)-5-cyano-1H-indole-3-carboxamide]	4.7	
N#Cc1ccc2[nH]cc(C(=O)NCCCN3CCN(c4cccc(Cl)c4)CC3)c2c1 [Compound 37, N-(3-(4-(3-Chlorophenyl)piperazin-1-yl)propyl)-5-cyano-1H-indole-3-carboxamide]		3.2
N#Cc1ccc2[nH]cc(C(=O)NCCN3CCN(C(=O)c4cccc(C(F)(F)F)c4)CC3)c2c1 [Compound 34, 5-Cyano-N-(2-(4-(3-(trifluoromethyl)benzoyl)piperazin-1-yl)ethyl)-1H-indole-3-carboxamide]	2.1	
N#Cc1ccc2[nH]cc(C(=O)NCCCN3CCN(c4ccc5ccccc5n4)CC3)c2c1 [Compound 45, 5-Cyano-N-(3-(4-(quinolin-2-yl)piperazin-1-yl)propyl)-1H-indole-3-carboxamide]		0.93
N#Cc1ccc2[nH]cc(C(=O)NCCN3CCN(c4nsc5ccccc45)CC3)c2c1 [Compound 32, N-(2-(4-(Benzo[d]isothiazol-3-yl)piperazin-1-yl)ethyl)-5-cyano-1H-indole-3-carboxamide]	14.3	
Cc1ccc(Sc2ccccc2N2CCN(CCNC(=O)c3c[nH]c4ccc(C#N)cc34)CC2)c(C)c1 [Compound 31, 5-Cyano-N-(2-(4-(2-((2,4-dimethylphenyl)thio)phenyl)piperazin-1-yl)ethyl)-1H-indole-3-carboxamide]		2.66
N#Cc1ccc2[nH]cc(C(=O)NCCCN3CCN(c4cccc(C(F)(F)F)n4)CC3)c2c1 [Compound 42, 5-Cyano-N-(3-(4-(6-(trifluoromethyl)pyridin-2-yl)piperazin-1-yl)propyl)-1H-indole-3-carboxamide]	45.7	
N#Cc1ccc2[nH]cc(C(=O)NCCN3CCN(c4cccc(C(F)(F)F)n4)CC3)c2c1 [Compound 26, 5-Cyano-N-(2-(4-(6-(trifluoromethyl)pyridin-2-yl)piperazin-1-yl)ethyl)-1H-indole-3-carboxamide]	48.6	
N#Cc1ccc2[nH]cc(C(=O)NCCN3CCN(c4cccc(F)c4)CC3)c2c1 [Compound 20, 5-Cyano-N-(2-(4-(3-fluorophenyl)piperazin-1-yl)ethyl)-1H-indole-3-carboxamide]	3.1	
N#Cc1ccc2[nH]cc(C(=O)NCCN3CCN(C(=O)c4ccc(F)cc4)CC3)c2c1 [Compound 33, 5-Cyano-N-(2-(4-(4-fluorobenzoyl)piperazin-1-yl)ethyl)-1H-indole-3-carboxamide]	24.2	
N#Cc1ccc2[nH]cc(C(=O)NCCN3CCC(c4noc5cc(F)ccc45)CC3)c2c1 [Compound 52, 5-Cyano-N-(2-(4-(6-fluorobenzo[d]isoxazol-3-yl)piperidin-1-yl)ethyl)-1H-indole-3-carboxamide]	46.7	
NCC1(CC(=O)O)CCCCC1 [gabapentin, reference compound]	70.7	
